Data from PubChem BioAssay AID2060893 (Molecular Pharmacology Branch, DTP, NCI, 2025).

System: K86415-001-R-J1-PDC complex spheroids, viability
Test: Anticancer human tumor K86415-001-R-J1-PDC patient-derived lung adenocarcinoma cell line growth inhibition [RAS]
Settings: for IC50: curve of first compound; for viability, T/C: stronger effect = lower value; active = viability on the fitted dose curve at most 10% of control; inactive = the rest
Summary of the method: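 Multi-cell-type spheroids: tumor cells plus HUVEC endothelial cells and mesenchymal stem cells. RAS-pathway inhibitors were combined with targeted agents, each dosed in half-log steps down from clinical Cmax, or from 10 microM when Cmax was unknown.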
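Note: spheroids exposed to agents for seven days before readout.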

CCc1c2c(nc3ccc(O)cc13)-c1cc3c(c(=O)n1C2)COC(=O)[C@]3(O)CC + C#Cc1c(F)ccc2cc(O)cc(-c3ncc4c(N5CC6CCC(C5)N6)nc(OCC56CCCN5CC(F)C6)nc4c3F)c12
1.79 nM: IC50 (second compound 1 µM)
2.54 nM: IC50 (second compound 0.0316 µM)
inactive: viability, T/C (second compound 0.0316 µM, first compound 0.000949 µM) 93.6% | viability, T/C (second compound 0.0316 µM, first compound 0.003 µM) 41.2% | viability, T/C (second compound 0.0316 µM, first compound 0.00949 µM) 21.4% | viability, T/C (second compound 0.0316 µM, first compound 0.03 µM) 17% | viability, T/C (second compound 0.1 µM, first compound 0.000949 µM) 85% | viability, T/C (second compound 0.1 µM, first compound 0.003 µM) 44.7% | viability, T/C (second compound 0.1 µM, first compound 0.00949 µM) 24.1% | viability, T/C (second compound 0.1 µM, first compound 0.03 µM) 14% | viability, T/C (second compound 0.316 µM, first compound 0.000949 µM) 80.7% | viability, T/C (second compound 0.316 µM, first compound 0.003 µM) 40.4% | viability, T/C (second compound 0.316 µM, first compound 0.00949 µM) 23.9% | viability, T/C (second compound 0.316 µM, first compound 0.03 µM) 15.6% | viability, T/C (second compound 1 µM, first compound 0.000949 µM) 69.1% | viability, T/C (second compound 1 µM, first compound 0.003 µM) 34.6% | viability, T/C (second compound 1 µM, first compound 0.00949 µM) 17.2% | viability, T/C (second compound 1 µM, first compound 0.03 µM) 13.6% | viability, T/C (second compound 3.16 µM, first compound 0.000949 µM) 46% | viability, T/C (second compound 3.16 µM, first compound 0.003 µM) 33.3% | viability, T/C (second compound 3.16 µM, first compound 0.00949 µM) 22.5% | viability, T/C (second compound 3.16 µM, first compound 0.03 µM) 15.5% | viability, T/C (second compound 3.16 µM, first compound 0.0949 µM) 13.9% | viability, T/C (second compound 10 µM, first compound 0.000949 µM) 17% | viability, T/C (second compound 10 µM, first compound 0.003 µM) 12.8% | viability, T/C (second compound 10 µM, first compound 0.00949 µM) 16.1% | viability, T/C (second compound 10 µM, first compound 0.03 µM) 18.1% | viability, T/C (second compound 10 µM, first compound 0.0949 µM) 14.2% | viability, T/C (second compound 10 µM, first compound 0.3 µM) 6.63%
< 0.949 nM: IC50 (second compound 3.16 µM) | IC50 (second compound 10 µM)
2.35 nM: IC50 (second compound 0.316 µM)
active: viability, T/C (second compound 0.0316 µM, first compound 0.0949 µM) 10.5% | viability, T/C (second compound 0.0316 µM, first compound 0.3 µM) 5.25% | viability, T/C (second compound 0.1 µM, first compound 0.0949 µM) 9.47% | viability, T/C (second compound 0.1 µM, first compound 0.3 µM) 5.05% | viability, T/C (second compound 0.316 µM, first compound 0.0949 µM) 11.5% | viability, T/C (second compound 0.316 µM, first compound 0.3 µM) 5.49% | viability, T/C (second compound 1 µM, first compound 0.0949 µM) 10.5% | viability, T/C (second compound 1 µM, first compound 0.3 µM) 6.31% | viability, T/C (second compound 3.16 µM, first compound 0.3 µM) 6.66%
2.62 nM: IC50 (second compound 0.1 µM)

Nc1ccn(C2OC(CO)C(O)C2(F)F)c(=O)n1 (centres undefined) + C#Cc1c(F)ccc2cc(O)cc(-c3ncc4c(N5CC6CCC(C5)N6)nc(OCC56CCCN5CC(F)C6)nc4c3F)c12
70 nM: IC50 (second compound 0.316 µM)
< 3.16 nM: IC50 (second compound 3.16 µM) | IC50 (second compound 10 µM)
inactive: viability, T/C (second compound 0.0316 µM, first compound 0.00316 µM) 92.8% | viability, T/C (second compound 0.0316 µM, first compound 0.01 µM) 95% | viability, T/C (second compound 0.0316 µM, first compound 0.0316 µM) 70% | viability, T/C (second compound 0.0316 µM, first compound 0.1 µM) 48.2% | viability, T/C (second compound 0.0316 µM, first compound 0.316 µM) 24.9% | viability, T/C (second compound 0.0316 µM, first compound 1 µM) 21.6% | viability, T/C (second compound 0.1 µM, first compound 0.00316 µM) 92.6% | viability, T/C (second compound 0.1 µM, first compound 0.01 µM) 96.6% | viability, T/C (second compound 0.1 µM, first compound 0.0316 µM) 70.8% | viability, T/C (second compound 0.1 µM, first compound 0.1 µM) 50.7% | viability, T/C (second compound 0.1 µM, first compound 0.316 µM) 26.6% | viability, T/C (second compound 0.1 µM, first compound 1 µM) 19.6% | viability, T/C (second compound 0.316 µM, first compound 0.00316 µM) 90% | viability, T/C (second compound 0.316 µM, first compound 0.01 µM) 83.3% | viability, T/C (second compound 0.316 µM, first compound 0.0316 µM) 60.3% | viability, T/C (second compound 0.316 µM, first compound 0.1 µM) 48.1% | viability, T/C (second compound 0.316 µM, first compound 0.316 µM) 23.8% | viability, T/C (second compound 0.316 µM, first compound 1 µM) 19.5% | viability, T/C (second compound 1 µM, first compound 0.00316 µM) 79.1% | viability, T/C (second compound 1 µM, first compound 0.01 µM) 69.5% | viability, T/C (second compound 1 µM, first compound 0.0316 µM) 54% | viability, T/C (second compound 1 µM, first compound 0.1 µM) 40.9% | viability, T/C (second compound 1 µM, first compound 0.316 µM) 22.7% | viability, T/C (second compound 1 µM, first compound 1 µM) 15.7% | viability, T/C (second compound 3.16 µM, first compound 0.00316 µM) 41.3% | viability, T/C (second compound 3.16 µM, first compound 0.01 µM) 35.4% | viability, T/C (second compound 3.16 µM, first compound 0.0316 µM) 29.7% | viability, T/C (second compound 3.16 µM, first compound 0.1 µM) 28.9% | viability, T/C (second compound 3.16 µM, first compound 0.316 µM) 23.6% | viability, T/C (second compound 3.16 µM, first compound 1 µM) 21.2% | viability, T/C (second compound 10 µM, first compound 0.00316 µM) 17.4% | viability, T/C (second compound 10 µM, first compound 0.01 µM) 17% | viability, T/C (second compound 10 µM, first compound 0.0316 µM) 16.8% | viability, T/C (second compound 10 µM, first compound 0.1 µM) 13.6% | viability, T/C (second compound 10 µM, first compound 0.316 µM) 15.5% | viability, T/C (second compound 10 µM, first compound 1 µM) 14.5%
45.5 nM: IC50 (second compound 1 µM)
83.3 nM: IC50 (second compound 0.0316 µM)
93 nM: IC50 (second compound 0.1 µM)
